According to patent US5281626A, “Benzenesulfonamide derivatives” (Eisai Co., Ltd., priority 1990, dated 1994):

Legend:
[1] = system: phospholipase A2 (PLA2) contained in the membrane fraction of rabbit heart; assay: Inhibitory activity against phospholipase A2 (PLA2) contained in the membrane fraction of rabbit heart; type: biochemical; settings: CaCl2 added, 37° C., 30 minutes
Experimental: (§1) A. Inhibitory activity against phospholipase A2 (PLA2) contained in the membrane fraction of rabbit heart or the supernatant fraction thereof (method) An NZW male rabbit was anesthetized by the intravenous administration of pentobarbital sodium to take out its heart. This heart was washed with ice cooled physiological saline to recover a ventricle, followed by the addition of ice-cooled 0.25M sucrose/20 mM tris hydrochloride buffer (pH: 8.0) in an amount of 5 ml per g of the ventricle. The obtained mixture was mashed with a homogenizer in ice water for 30 minutes and centrifuged at 1,000 g for 10 min. The supernatant was further centrifuged at 105,000 g for 60 min. The centrifugation was conducted at 0° to 4° C. The obtained supernatant was used as such as the supernatant fraction for examination. The precipitate was suspended in the same buffer as that described above and used as the membrane fraction for examination. The protein concentrations of these fractions were each adjusted to 5 mg/ml as determined by Lowry method. […] The test tubes of the membrane fraction were kept at 37° C. for 30 minutes for incubation, while those of the supernatant fraction were kept at 37° C. for 5 minutes for incubation. Each incubation was stopped by the addition of 1 ml of Dole reagent. […] The amount of ^14 C was determined with a liquid scintillation counter. Mepacrine was selected as a comparative compound. (Results)

[2] = system: phospholipase A2 (PLA2) contained in the supernatant fraction of rabbit heart; assay: Inhibitory activity against phospholipase A2 (PLA2) contained in the supernatant fraction of rabbit heart; type: biochemical; settings: EGTA added, 37° C., 5 minutes
Experimental: as §1

Row | Compound | PLA2 -inhibitory activity IC30, membrane fraction [1] | PLA2 -inhibitory activity IC30, supernatant fraction [2]
1 | CN(C(=O)/C=C/c1ccc(S(C)(=O)=O)cc1)c1ccc(S(=O)(=O)NC2CCCCN(Cc3ccccc3)C2)cc1 (racemic) [Example 9, (±)-[1-benzyl-3-hexamethyleneimino]-4-{N-methyl N-[(E)-N-3-(4-methylsulfonylphenyl)-2-propenoyl]amino)benzenesulfonamide] | 0.015 µM | 61 µM
2 | CN(C(=O)/C=C/c1ccc(-n2ccnc2)cc1)c1ccc(S(=O)(=O)N[C@@H]2C[C@H]3CC[C@@H]2C3)cc1 (relative stereo) [Example 31, (±)-N-(exo-2-norbornyl)-4-{N-methyl-N-[(E)-3-[4-(1-imidazolyl)phenyl]-2-propenoyl]amino}benzenesulfonamide] | 0.42 µM | 29 µM
3 | CN(C(=O)/C=C/c1ccc(O)c(O)c1)c1ccc(S(=O)(=O)NC2Cc3ccccc3C2)cc1 [Example 2, N-(2-indanyl)-4-{N-methyl-N-[(E)-3-(3,4-dihydroxyphenyl)-2-propenoyl]amino}benzenesulfonamide] | 4.48 µM | 40 µM
4 | CN(C(=O)/C=C/c1ccc(OC(=O)CN)c(OC(=O)CN)c1)c1ccc(S(=O)(=O)NC2Cc3ccccc3C2)cc1 [Example 3, N-(2-indanyl)-4-{N-methyl-N-[(E)-3-[3,4-diglycyloxyphenyl)-2-propenoyl]amino}benzenesulfonamide] | 2.4 µM | 
5 | CN(C(=O)/C=C/c1ccc(S(C)(=O)=O)cc1)c1ccc(S(=O)(=O)NC2CCN(CCc3ccccc3)CC2)cc1 [Example 5, N-[1-(2-phenylethyl)-4-piperidyl]-4-{N-methyl-N-[(E)-3-(4-methylsulfonylphenyl) -2-propenoyl]amino}benzenesulfonamide] | 0.007 µM | 49 µM
6 | CN(C(=O)/C=C/c1ccc(S(C)(=O)=O)cc1)c1ccc(S(=O)(=O)NC2CCCCCC2)cc1 [Example 14, N-pycloheptyl-4-(N-methyl-N-[(E)-3-(4-methylsulfonylphenyl)-2-propenoyl]amino}benzenesulfonamide] | 0.016 µM | > 30 µM
7 | CN(C(=O)/C=C/c1ccc(S(C)(=O)=O)cc1)c1ccc(S(=O)(=O)NCCc2ccccn2)cc1 [Example 18, N-[2-(2-pyridyl)ethyl]-4-{N-methyl-N-[(E)-3-(4-methylsulfonylphenyl) -2-propenoyl]amino}benzenesulfonamide] | 0.18 µM | > 100 µM
8 | CN(C(=O)/C=C/c1ccc(S(C)(=O)=O)cc1)c1ccc(S(=O)(=O)N2CCCN(CC3CCCCC3)CC2)cc1 [Example 20, (E)-N-methyl-N-[4-(4-cyclohexylmethyl-1-homopiperazinyl)sulfonylphenyl]-3 (4 methylsulfonylphenyl)-2-propenamide] | 0.045 µM | 92 µM
9 | CN(C(=O)/C=C/c1ccc(S(C)(=O)=O)cc1)c1ccc(S(=O)(=O)N2CCCN(Cc3ccccc3)CC2)cc1 [Example 21, (E)-N-methyl-N-[4-(4-benzyl-1-homopiperazinyl)sulfonylphenyl]-3-(4-methylsulfonylphenyl)-2-propenamide] | 0.055 µM | > 100 µM
10 | CN(C(=O)/C=C/c1ccc(S(C)(=O)=O)cc1)c1ccc(S(=O)(=O)N2CCN(CCc3ccccc3)CC2)cc1 [Example 22, (E)-N methyl-N-{4-[4-(2-phenylethyl)-piperazinyl]sulfonylphenyl}-3-(4-methylsulfonylphenyl)-2-propenamide] | 0.050 µM | > 100 µM
11 | CN(C(=O)/C=C/c1ccc(C#N)cc1)c1ccc(S(=O)(=O)NC2CCCCCC2)cc1 [Example 25, N-cycloheptyl-4-{N-methyl-N-[(E)-3-(4-cyanophenyl)-2-propenoyl]amino}benzenesulfonamide] | 0.16 µM | 68 µM
12 | CN(C(=O)/C=C/c1ccc(C#N)cc1)c1ccc(S(=O)(=O)NC2CCN(Cc3ccccc3)CC2)cc1 [Example 26, N-(1-benzyl-4-piperidyl)-4-{N-methyl-N-[(E)-3-(4-cyanophenyl)-2-propenoyl]amino}benzenesulfonamide] | 0.24 µM | 59 µM
13 | CN(C(=O)/C=C/c1ccc(-n2ccnc2)cc1)c1ccc(S(=O)(=O)NC2CCCCCC2)cc1 [Example 29] | 0.45 µM | 90 µM
14 | CN(C(=O)/C=C/c1ccc(-n2ccnc2)cc1)c1ccc(S(=O)(=O)NC2CCCCCCC2)cc1 [Example 30, N-cyclooctyl-4-{N-methyl-N-[(E)-3-[4-(1-imidazolyl)phenyl]-2-propenoyl]amino}benzenesulfonamide] | 0.66 µM | > 100 µM
15 | CN(C(=O)/C=C/c1ccc([N+](=O)[O-])cc1)c1ccc(S(=O)(=O)NC2CCCCCC2)cc1 [Example 38, N-cycloheptyl-4-{N-methyl-N-[(E)-3-(4-nitrophenyl)-2-propenoyl]amino}benzenesulfonamide] | 0.12 µM | 29 µM
16 | CN(C(=O)/C=C/c1ccc(O)cc1)c1ccc(S(=O)(=O)NC2Cc3ccccc3C2)cc1 [Example 41, N-(2-indanyl)-4-{N-methyl-N-[(E)-3-(4-dihydroxyphenyl)-2-propenoyl]amino}benzenesulfonamide] | 0.98 µM | 46 µM
17 | CN(C(=O)/C=C/c1ccc(O)c(F)c1)c1ccc(S(=O)(=O)NC2CCCCCC2)cc1 [Example 43] | 3.49 µM | 62 µM
18 | CN(C(=O)/C=C/C=C/c1cc(Br)c(O)c(Br)c1)c1ccc(S(=O)(=O)NC2CCCCCC2)cc1 [Example 44, N-cycloheptyl-4-{N-methyl-N-[(2E, 4E)-5-(3,5-dibromo-4-hydroxyphenyl) -2,4-pentadienoyl]amino}benzenesulfonamide] | 5.1 µM | 39 µM
19 | CN(C(=O)/C=C/C=C/c1ccc(O)c(O)c1)c1ccc(S(=O)(=O)NC2CCc3ccccc3C2)cc1 (stereo not shown) [Example 48] | 1.7 µM | 32 µM
20 | CN(C(=O)/C=C/c1ccc(O)c(O)c1)c1ccc(S(=O)(=O)NC2CCCCCC2)cc1 [Example 49, N-cycloheptyl-4-{N-methyl-N-[(E)-3-(3,4-dihydroxyphenyl)-2-propenoyl]amino}benzenesulfonamide] | 1.8 µM | 56 µM
21 | CN(C(=O)/C=C/C=C/c1ccc(O)c(O)c1)c1ccc(S(=O)(=O)NC2CCCCCC2)cc1 [Example 50, N-cycloheptyl-4-{N-methyl N-[(2E, 4E)-5-(3,4-dihydroxyphenyl)-2,4-pentadienoyl]amino}benzenesulfonamide] | 1.05 µM | 38 µM
22 | CN(C(=O)/C=C/c1ccc(O)c(O)c1)c1ccc(S(=O)(=O)NC2CCCCC2)cc1 [Example 58, N-cyclohexyl-4-{N-methyl-N-[(E)-3-(3,4-dihydroxyphenyl)-2-propenoyl]amino}benzenesulfonamide] | 1.5 µM | 64 µM
23 | CN(C(=O)/C=C/c1ccc(O)c(O)c1)c1ccc(S(N)(=O)=O)cc1 [Example 65, 4-{N-methyl-N-[(E)-3-(3,4-dihydroxyphenyl)-2-propenoyl]amino}benzenesulfonamide] | 16 µM | 
24 | COc1ccc(/C(=C/C(=O)Nc2ccc(S(N)(=O)=O)cc2)c2cccnc2)cc1OC [Example 72] | 41 µM | 
25 | NS(=O)(=O)c1ccc(NC(=O)/C=C/c2ccc(O)c(O)c2)cc1 [Example 77] | 20 µM | > 100 µM
26 | COc1ccc(CCN2CCC(NS(=O)(=O)c3ccc(N(C)C(=O)/C=C/c4ccc(S(C)(=O)=O)cc4)cc3)CC2)cc1OC [Example 79] | 0.03 µM | > 100 µM
27 | Cc1cccc(CCN2CCC(NS(=O)(=O)c3ccc(N(C)C(=O)/C=C/c4ccc(S(C)(=O)=O)cc4)cc3)CC2)n1 [Example 81, N-[1-(2-(6-methyl-2-pyridyl)ethyl]-4-piperidyl-4-{N-methyl-N-(E)-3-(4-methylsulfonylphenyl)-2-propenoyl]amino}benzenesulfonamide] | 0.044 µM | > 100 µM
28 | CN(C(=O)/C=C/c1ccc(O)c(F)c1)c1ccc(S(=O)(=O)NC2CCCCCCC2)cc1 [Example 87, N-cyclooctyl-4-{N-methyl-N-[(E)-3-(3-fluoro-4-hydroxyphenyl)-2-propenoyl]amino}benzenesulfonamide] | 2.1 µM | 
